The term IC50 denotes the point on the concentration scale where inhibition reaches its midpoint.

In the first test the target is Gastrin/cholecystokinin type B receptor (Cavia porcellus). In words: Inhibitory activity against cholecystokinin-B (CCK-B) receptor in cortex of male hartley guinea pig.
`Cc1cccc(NC(=O)N[C@@H]2C[C@H](c3ccccc3C)C[C@H](c3ccccc3)N(CC(=O)Nc3ccccc3Cl)C2=O)c1` [N-(2-Chloro-phenyl)-2-[(3R,5S,7R)-2-oxo-7-phenyl-5-o-tolyl-3-(3-m-tolyl-ureido)-azepan-1-yl]-acetamide] returned an IC50 of 28 nM.

Turning to `COc1ccccc1[C@@H]1C[C@H](c2ccccc2)N(CC(=O)NC(C)(C)C)C(=O)[C@H](NC(=O)Nc2cccc(C)c2)C1` [N-tert-Butyl-2-[(3R,5S,7R)-5-(2-methoxy-phenyl)-2-oxo-7-phenyl-3-(3-m-tolyl-ureido)-azepan-1-yl]-acetamide], 28 nM corresponded to half-maximal inhibition (IC50).

`Cc1cccc(NC(=O)N[C@@H]2C[C@H](c3ccccc3C)C[C@H](c3ccccc3)N(CC(=O)NC(C(C)(C)C)C(C)(C)C)C2=O)c1` [N-(1-tert-Butyl-2,2-dimethyl-propyl)-2-[(3R,5S,7R)-2-oxo-7-phenyl-5-o-tolyl-3-(3-m-tolyl-ureido)-azepan-1-yl]-acetamide] had an IC50 of 453 nM.

Take `Cc1cccc(NC(=O)N[C@@H]2C[C@H](c3ccccc3C)C[C@H](c3ccccc3)N(CC(=O)NC3(C)CCCCC3)C2=O)c1` [N-(1-Methyl-cyclohexyl)-2-[(3R,5S,7R)-2-oxo-7-phenyl-5-o-tolyl-3-(3-m-tolyl-ureido)-azepan-1-yl]-acetamide]: the IC50 was 134 nM. Compared with the last compound, the IC50 is about 3.4-fold lower.

`Cc1ccccc1[C@@H]1C[C@H](c2ccccc2)N(CC(=O)NC(C)(C)C)C(=O)[C@H](NC(=O)Nc2cccc(F)c2)C1` [N-tert-Butyl-2-{(3R,5S,7R)-3-[3-(3-fluoro-phenyl)-ureido]-2-oxo-7-phenyl-5-o-tolyl-azepan-1-yl}-acetamide] gave a half-maximal inhibitory concentration (IC50) of 36 nM.

Take `Cc1cccc(NC(=O)N[C@@H]2C[C@H](c3ccccc3)C[C@H](c3cccc(C)c3)N(CC(=O)NC(C)(C)C)C2=O)c1` [N-tert-Butyl-2-[(3R,5S,7R)-2-oxo-5-phenyl-7-m-tolyl-3-(3-m-tolyl-ureido)-azepan-1-yl]-acetamide]: half-maximal inhibition (IC50) was put at 141 nM.

`Cc1cccc(NC(=O)N[C@@H]2C[C@H](c3ccccc3)C[C@H](c3cccc(F)c3)N(CC(=O)NC(C)(C)C)C2=O)c1` [N-tert-Butyl-2-[(3R,5S,7R)-7-(3-fluoro-phenyl)-2-oxo-5-phenyl-3-(3-m-tolyl-ureido)-azepan-1-yl]-acetamide] yielded an IC50 of 31 nM.

As for `Cc1ccc([C@H]2C[C@@H](c3ccccc3)C[C@@H](NC(=O)Nc3cccc(C)c3)C(=O)N2CC(=O)NC(C)(C)C)cc1` [N-tert-Butyl-2-[(3R,5S,7R)-2-oxo-5-phenyl-7-p-tolyl-3-(3-m-tolyl-ureido)-azepan-1-yl]-acetamide], inhibition was half-maximal at 560 nM (IC50).

The compound `Cc1cccc(NC(=O)N[C@@H]2C[C@H](c3ccccc3)C[C@H](c3ccc(F)cc3)N(CC(=O)NC(C)(C)C)C2=O)c1` [N-tert-Butyl-2-[(3R,5S,7R)-7-(4-fluoro-phenyl)-2-oxo-5-phenyl-3-(3-m-tolyl-ureido)-azepan-1-yl]-acetamide] gave a concentration for half-maximal inhibition (IC50) of 203 nM.

Compound `Cc1cccc(NC(=O)N[C@@H]2C[C@H](c3ccccc3C)C[C@H](c3ccccc3)N(CC(=O)NC(C)(C)C)C2=O)c1` [N-tert-Butyl-2-[(3R,5S,7R)-2-oxo-7-phenyl-5-o-tolyl-3-(3-m-tolyl-ureido)-azepan-1-yl]-acetamide] yielded an IC50 of 7.8 nM.

`Cc1ccccc1[C@@H]1C[C@H](c2ccccc2)N(CC(=O)NC(C)(C)C)C(=O)[C@H](NC(=O)Nc2cccc(C(F)(F)F)c2)C1` [N-tert-Butyl-2-{(3R,5S,7R)-2-oxo-7-phenyl-5-o-tolyl-3-[3-(3-trifluoromethyl-phenyl)-ureido]-azepan-1-yl}-acetamide] showed an IC50 of 28 nM. Compared with the last compound, the IC50 is about 3.6-fold higher.

Compound `CCc1ccccc1[C@@H]1C[C@H](c2ccccc2)N(CC(=O)NC(C)(C)C)C(=O)[C@H](NC(=O)Nc2cccc(C)c2)C1` [N-tert-Butyl-2-[(3R,5S,7R)-5-(2-ethyl-phenyl)-2-oxo-7-phenyl-3-(3-m-tolyl-ureido)-azepan-1-yl]-acetamide] returned an IC50 of 25 nM.

Compound `Cc1ccc(NC(=O)CN2C(=O)[C@H](NC(=O)Nc3cccc(C)c3)C[C@H](c3ccccc3C)C[C@@H]2c2ccccc2)cc1` [2-[(3R,5S,7R)-2-Oxo-7-phenyl-5-o-tolyl-3-(3-m-tolyl-ureido)-azepan-1-yl]-N-p-tolyl-acetamide] came in with an IC50 of 40 nM.

`Cc1ccccc1[C@@H]1C[C@H](c2ccccc2)N(CC(=O)NC(C)(C)C)C(=O)[C@H](NC(=O)Nc2cccc([N+](=O)[O-])c2)C1` [N-tert-Butyl-2-{(3R,5S,7R)-3-[3-(3-nitro-phenyl)-ureido]-2-oxo-7-phenyl-5-o-tolyl-azepan-1-yl}-acetamide]: the IC50 was determined as 10 nM. This IC50 is about 4-fold lower than that of the compound before.

`Cc1ccccc1[C@@H]1C[C@H](c2ccccc2)N(CC(=O)NC(C)(C)C)C(=O)[C@H](NC(=O)Nc2ccc(Cl)cc2)C1` [N-tert-Butyl-2-{(3R,5S,7R)-3-[3-(4-chloro-phenyl)-ureido]-2-oxo-7-phenyl-5-o-tolyl-azepan-1-yl}-acetamide] registered an IC50 of 117 nM.

For the compound `Cc1cccc(NC(=O)N[C@@H]2C[C@H](c3ccccc3C)C[C@H](c3ccccc3)N(CC(=O)Nc3ccccc3C)C2=O)c1` [2-[(3R,5S,7R)-2-Oxo-7-phenyl-5-o-tolyl-3-(3-m-tolyl-ureido)-azepan-1-yl]-N-o-tolyl-acetamide], the IC50 amounted to 71 nM.

For the compound `COc1ccc(NC(=O)N[C@@H]2C[C@H](c3ccccc3C)C[C@H](c3ccccc3)N(CC(=O)NC(C)(C)C)C2=O)cc1` [N-tert-Butyl-2-{(3R,5S,7R)-3-[3-(4-methoxy-phenyl)-ureido]-2-oxo-7-phenyl-5-o-tolyl-azepan-1-yl}-acetamide], the IC50 came out at 87 nM.

In turn, `Cc1ccc([C@@H]2C[C@H](c3ccccc3)N(CC(=O)NC(C)(C)C)C(=O)[C@H](NC(=O)Nc3cccc(C)c3)C2)cc1` [N-tert-Butyl-2-[(3R,5S,7R)-2-oxo-7-phenyl-5-p-tolyl-3-(3-m-tolyl-ureido)-azepan-1-yl]-acetamide] came in with an IC50 of 190 nM. This IC50 is about 2.2-fold higher than that of the compound before.

`Cc1cccc(NC(=O)N[C@@H]2C[C@H](c3ccc(F)cc3)C[C@H](c3ccccc3)N(CC(=O)NC(C)(C)C)C2=O)c1` [N-tert-Butyl-2-[(3R,5S,7R)-5-(4-fluoro-phenyl)-2-oxo-7-phenyl-3-(3-m-tolyl-ureido)-azepan-1-yl]-acetamide] gave an IC50 of 65 nM.

In the case of `CCc1cccc(NC(=O)N[C@@H]2C[C@H](c3ccccc3C)C[C@H](c3ccccc3)N(CC(=O)NC3(C)CCCCC3)C2=O)c1` [2-{(3R,5S,7R)-3-[3-(3-Ethyl-phenyl)-ureido]-2-oxo-7-phenyl-5-o-tolyl-azepan-1-yl}-N-(1-methyl-cyclohexyl)-acetamide], the IC50 is 38 nM.

For the next test the target is unchanged. Described as above. This is another data set of the same source.
For `Cc1cccc(NC(=O)N[C@@H]2C[C@H](c3ccccc3C)C[C@H](c3ccccc3)N(CC(=O)NC(C)(C)C)C2=O)c1` [N-tert-Butyl-2-[(3R,5S,7R)-2-oxo-7-phenyl-5-o-tolyl-3-(3-m-tolyl-ureido)-azepan-1-yl]-acetamide], it took 527 nM to reach half-maximal inhibition (IC50).

Source of the values: BindingDB's records for doi:10.1016/S0960-894X(01)80832-5 (1994).
